Measured values published in patent US20160075689A1, “POLYMERASE, ENDONUCLEASE, AND HELICASE INHIBITORS AND METHODS OF USING THEREOF” (THE BOARD OF TRUSTEES OF THE UNIVERSITY OF ARKANSAS, priority 2013, published 2016).
Several values for one entry are separate records, joined by “and”; a condition that tells them apart may be missing. Identical values can stand only once.

What was measured:
NS3-4A = NS3-4A (Hepatitis C virus genotype 1b, UniProt P26663); experiment: NS3 protease activity assay; assay type: biochemical, HCV; conditions: 25 μM compound, 50 nM NS3-4A, 100 nM substrate
Chain of NS3-4A (P26663 1027-1657): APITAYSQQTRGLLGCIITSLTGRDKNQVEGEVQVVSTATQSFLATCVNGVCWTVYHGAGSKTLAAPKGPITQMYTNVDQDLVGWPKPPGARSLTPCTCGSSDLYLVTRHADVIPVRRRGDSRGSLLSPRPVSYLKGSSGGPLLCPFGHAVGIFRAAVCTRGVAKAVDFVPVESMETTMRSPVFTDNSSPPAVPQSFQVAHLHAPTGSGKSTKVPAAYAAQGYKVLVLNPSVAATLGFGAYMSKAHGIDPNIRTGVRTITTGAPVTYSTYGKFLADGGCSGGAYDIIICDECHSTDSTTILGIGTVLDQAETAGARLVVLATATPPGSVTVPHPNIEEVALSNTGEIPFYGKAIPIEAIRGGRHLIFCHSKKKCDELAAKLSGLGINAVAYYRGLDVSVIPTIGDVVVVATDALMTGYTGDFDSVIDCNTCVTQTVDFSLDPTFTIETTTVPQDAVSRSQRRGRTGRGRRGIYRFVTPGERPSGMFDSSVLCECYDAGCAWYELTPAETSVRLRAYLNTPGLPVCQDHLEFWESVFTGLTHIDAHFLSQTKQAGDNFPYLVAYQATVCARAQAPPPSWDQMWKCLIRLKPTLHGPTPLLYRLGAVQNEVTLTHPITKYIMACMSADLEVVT
Chain of NS3-4A (P26663 1658-1711): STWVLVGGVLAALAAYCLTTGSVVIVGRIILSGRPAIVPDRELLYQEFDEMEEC
Protocol: The protease activity of NS3 was analyzed in the presence of 25 μM ITBA-3-79, ITBA-3-82 or ITBA-3-85 by using 50 nM NS3-4A and 100 nM substrate (Ac-Asp-Glu-Asp-EDANS-Glu-Glu-Abu-L-Lactoyl-Ser-Lys DABCYL-NH2). The emission spectra of EDANS and the absorption spectra of DABCYL overlap making the peptide internally quenched. Cleaving of the substrate by the protease results in an increase in fluorescence that can be measured (λex−355 nm; λem, −500 nm). Telapravir (10 μM) was used as a positive control.

NS3 helicase = molecular target: T1, NS3 helicase (Hepatitis C virus genotype 1b, UniProt P26663); experiment: Gel-based helicase assay; assay type: biochemical, HCV; conditions: standard helicase assay
T1 construct: analyze the helicase activity of NS3 helicase in the presence of the compounds; made in house
T1 sequence (P26663 1027-1657): as the sequence (P26663 1027-1657) above
Protocol: Benchtop unwinding assays were performed to analyze the helicase activity of NS3 helicase in the presence of the compounds. The unwinding reaction was initiated by mixing the right (N53, compound, assay buffer) and left (radiolabeled substrate, ATP, assay buffer) reactions, which was then quenched. The ssDNA product formed over time is separated from dsDNA substrate by 20% native PAGE. The ratio of dsDNA substrate to ssDNA product is quantified using ImageQuant and the fraction of substrate unwound at each time-point is plotted as a function of time using Kaleidagraph software.

HCV NS3 helicase = molecular target: T2, HCV NS3 helicase (Hepatitis C virus genotype 1b, UniProt P26663); experiment: Fluorescence-based helicase assay; assay type: biochemical; conditions: IC50 for inhibition of NS3 helicase, mean ± standard deviation of three data sets
T2 construct: analyze the helicase activity of NS3 helicase in the presence of the compounds; made in house
T2 sequence (P26663 1027-1657): as above
Protocol: A library of compounds was screened using a previously validated quantitative assay that measures helicase activity over time. The assay relies upon helicase-catalyzed displacement of a fluorescently-labeled oligonucleotide (FIG. 13A). The concentration of enzyme and compounds used was 250 nM and 20 μM respectively. The experiments were performed in triplicate. […] Three potential helicase inhibitors were identified using the fluorescence based assay. […] The inhibitor compounds identified in our screen were ITBA-3-79, ITBA-3-82 and ITBA-3-85 (FIG. 14A). […] The IC50 value for ITBA-3-79, ITBA-3-82 and ITBA-3-85-mediated inhibition of NS3 helicase ranged˜20 μM (FIG. 14C). The ATPase activity of NS3 (50 μM) was analyzed in the presence of ITBA-3-79, ITBA-3-82 and ITBA-3-85 using a coupled spectrophotometric assay (Raney and Benkovic 1995, (FIG. 15). The protease activity of NS3 was analyzed in the presence of ITBA-3-79, ITBA-3-82 and ITBA-3-85 by using 50 nM NS3-4A and 100 nM substrate (Ac-Asp-Glu-Asp-EDANS-Glu-Glu-Abu-L-Lactoyl-Ser-Lys DABCYL-NH2, FIG. 15. The NS3 helicase activity was analyzed in the presence of 25 μM ITBA-3-79, ITBA-3-82 and ITBA-3-85 (FIG. 16).
A fluorescence based quantitative assay that measures helicase activity over time was employed to screen the compounds. The concentration of enzyme and compounds used was 250 nM and 20 μM respectively. Helicase catalyzes the unwinding of a FAM-labeled dsDNA and the resulting increase in fluorescence is plotted (λex-485 nm; λem, −528 nm). The slope of the initial part of the plot was used to calculate the percentage helicase activity. […] The IC50 value for ITBA-3-79, ITBA-3-82 and ITBA-3-85-mediated inhibition of NS3 helicase was determined using the same assay.

EndoG [1] = molecular target: T3, EndoG (Homo sapiens, UniProt Q14249); experiment: High-throughput EndoG screening assay; assay type: biochemical
T3 sequence (Q14249 49-297): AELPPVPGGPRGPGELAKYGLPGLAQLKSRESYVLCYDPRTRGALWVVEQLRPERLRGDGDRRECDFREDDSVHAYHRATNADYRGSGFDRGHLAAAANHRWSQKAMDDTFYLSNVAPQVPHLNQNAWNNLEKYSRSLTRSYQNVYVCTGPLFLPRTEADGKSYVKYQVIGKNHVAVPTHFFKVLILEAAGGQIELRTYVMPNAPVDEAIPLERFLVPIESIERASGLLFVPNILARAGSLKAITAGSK
Protocol: (§1) A reaction mixture was prepared in each well of a white 96-well plate (Costar, Corning, N.Y.) as follows: 0.25 μM Cy5.5-labeled oligonucleotide (described in US provisional patent filed Oct. 19, 2012, Ser. No. 61/716,097) 0.3 mM MgCl2, 10 mM Tris-HCl, pH 7.4, 1 μl DMSO containing 5 or 50 ng of test compound, and nuclease-free water for a total reaction volume of 100 μl. The background (negative control) and uninhibited EndoG samples were measured using DMSO only, or DMSO containing recombinant EndoG (4 μg/ml), respectively. After addition of EndoG, fluorescence intensity was kinetically measured on a Bio-Tek Synergy 4.0 plate reader at 37° C. and mean velocity (mRFU/min) within 20 min was automatically calculated by the plate reader. The background was subtracted prior to the calculation of EndoG activity (%). The percent of EndoG activity was calculated from the mean velocity of a compound divided by the mean velocity of DMSO with recombinant EndoG, and the obtained value multiplied by 100.

protease = experiment: Protease activity in NRK-52E cell extract; assay type: biochemical; conditions: 0.1 μM and 10 μM
Protocol: (§2) As a follow up to Example 8, the effects of the EndoG inhibitors PNR-3-80 and PNR-3-82, at 0.1 μM and 10 μM each, on the activities of four other enzymes including RNase A, protease, LDH, and SOD in NRK-52E cell extract were examined. NRK-52E cells were grown to ˜80% confluence in […]. The medium was aspirated and the cells were rinsed with ice cold 1×PBS, pH 7.4. The cells were lysed in 50 mM Tris-HCl, pH 7.4, 150 mM NaCl, 1% Triton X-100 for 10 min on ice and then briefly sonicated. Cell debris was removed by centrifugation at 13,000×g for 10 min at 4° C. The supernatant was collected and stored at −80° C. until use. LDH, Protease, Superoxide dismutase (SOD), and Ribonuclease A (RNase A) activities were measured by using CytoTox 96® Non-Radioactive Cytotoxicity Assay kit (Promega, Madison, Wis.), Protease Fluorescent Detection kit (Sigma-Aldrich, Saint Louis, Mo.), SOD determination kit (Sigma-Aldrich, Saint Louis, Mo.), and Ribonuclease A Detection kit (Sigma-Aldrich, Saint Louis, Mo.), respectively, according to the manufacturer's instructions.

22Rv1 cells = experiment: Cytoprotection against Cisplatin-induced cell death, LDH release assay; assay type: cell-based, human; conditions: Cisplatin 60 μM, inhibitor 50 μM
Protocol: To test cytotoxic activities of the inhibitors, human prostrate carcinoma epithelial 22Rv1 cells, which naturally express EndoG, were exposed to Cisplatin (60 μM) in the presence or absence of PNR-3-80 (50 μM) and cell death was measured by the LDH release assay.

DNase II = molecular target: T4, DNase II (Homo sapiens, UniProt O00115); experiment: Endonuclease screening assay, specificity; assay type: biochemical
T4 sequence (O00115 19-360): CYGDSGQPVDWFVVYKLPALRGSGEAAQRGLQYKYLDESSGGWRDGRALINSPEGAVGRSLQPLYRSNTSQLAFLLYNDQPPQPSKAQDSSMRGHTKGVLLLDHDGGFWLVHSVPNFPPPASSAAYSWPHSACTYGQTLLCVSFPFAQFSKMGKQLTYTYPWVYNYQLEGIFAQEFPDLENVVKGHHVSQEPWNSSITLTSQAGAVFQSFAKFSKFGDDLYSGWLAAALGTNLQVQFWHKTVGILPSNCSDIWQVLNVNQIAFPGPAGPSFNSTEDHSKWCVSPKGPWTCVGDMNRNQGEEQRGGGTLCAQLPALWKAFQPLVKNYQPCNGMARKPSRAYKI
Text: (§3) Specificity of a potential inhibitor is important for any in vitro or in vivo application, and generally defines the usefulness of an inhibitor. To determine specificity of the inhibitors for the two EndoG inhibitors, PNR-3-80 and PNR-3-82, their IC50 values for EndoG were compared using the screening assay with the IC50 values for two other endonucleases, DNase I and DNAse II (FIG. 11). These endonucleases were chosen because they represent the majority of endonuclease activity in most mammalian cells and because of their availability as pure enzymes.
as §1

DNase I = molecular target: T5, DNase I (Homo sapiens, UniProt P24855); experiment: Endonuclease screening assay, specificity; assay type: biochemical
T5 sequence (P24855 23-282): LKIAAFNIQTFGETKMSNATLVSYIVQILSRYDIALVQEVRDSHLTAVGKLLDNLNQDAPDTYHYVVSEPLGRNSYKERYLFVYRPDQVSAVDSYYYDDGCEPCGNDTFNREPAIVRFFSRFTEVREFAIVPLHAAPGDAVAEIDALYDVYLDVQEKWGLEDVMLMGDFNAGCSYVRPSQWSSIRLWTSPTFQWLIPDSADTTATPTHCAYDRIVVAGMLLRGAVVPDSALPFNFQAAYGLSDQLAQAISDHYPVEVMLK
Text: as §3, §1

RNase A = experiment: Ribonuclease A activity in NRK-52E cell extract; assay type: biochemical; conditions: 0.1 μM and 10 μM
Protocol: as §2

SOD = SOD activity in NRK-52E cell extract; assay type: biochemical; conditions: 0.1 μM and 10 μM
Protocol: as §2

EndoG [2] = molecular target: T3, EndoG; experiment: Plasmid incision assay; assay type: biochemical; conditions: agarose gel, FIG. 9
Protocol: A reaction mixture was prepared containing 0.5 μg pECFP plasmid DNA, 2 mM CaCl2, 5 mM MgCl2, 10 mM Tris-HCl, pH 7.4, 0.5 mM dithiothreitol. The test compound [50 ng in DMSO (1 μl)] was added. Recombinant EndoG was then added to the final concentration of 200 ng/ml and the reaction was incubated for 1 h at 37° C. The reaction was terminated by adding 2 μl of 10 mM Tris-HCl, pH 7.4, 1% SDS, 25 mM EDTA, 7.2 mM bromophenol blue. The samples were run in 1% agarose gel in Tris-acetate-EDTA buffer (40 mM Tris, 20 mM acetic acid, 1 mM EDTA, pH 8), at 7 V/cm for 35 min, and DNA was stained with ethidium bromide. An EagleEye scanning densitometer (Stratagene, La Jolla, Calif.) was utilized to quantify the relative amount of endonuclease-treated plasmid DNA present in a covalently-closed circular (supercoiled) DNA, open circular DNA, or linear DNA, or in a digested form.

[3] = system: EndoG-expressing PC3 cells; experiment: Cytoprotection against Docetaxel-induced cell death, LDH release and TUNEL assays; assay type: cell-based, human; conditions: Docetaxel 80 μM, inhibitor 50 μM
Protocol: Docetaxel is an anti-cancer drug used to treat prostate cancer. Human invasive prostate cancer PC3 cells are known to be resistant to anticancer drugs. […] The resulting EndoG-expressing PC3 cells were exposed with Docetaxel (80 μM) in the absence or presence of the inhibitors, PNR-3-80 or PNR-3-82 (50 μM each). The cell death was measured by using two methods, LDH release assay and TUNEL assay. […]

LDH = LDH activity in NRK-52E cell extract; assay type: biochemical; conditions: 0.1 μM and 10 μM
Protocol: as §2

SMILES | NS3 protease activity (NS3-4A) | NS3 helicase activity, gel electrophoresis (NS3 helicase) | IC50 (HCV NS3 helicase) | remaining activity at 1 µM (EndoG [1]; 20 min, compound 1 μM, read-out: % EndoG activity in the presence of the compound) [%] | IC50 (EndoG [1]; IC50 against EndoG, EndoG screening assay) | protease activity (protease) | inhibition of Cisplatin-induced cell death (22Rv1 cells) | inhibition of Cisplatin-induced cell death (22Rv1 cells; listed as P-NR-30) | effect on DNase II activity (DNase II) | IC50 (DNase I) [µM] | RNase A activity (RNase A) | SOD activity (SOD) | protection of supercoiled plasmid DNA from degradation by EndoG (EndoG [2]) | cytoprotection against Docetaxel-induced cell death [3] | LDH activity (LDH)
O=C1NC(=S)NC(=O)C1=Cc1cn(C(=O)c2ccc3ccccc3c2)c2ccccc12 [ITBA-3-79] | do not block protease activity | confirmed the inhibition | ~20 µM and 21.6 µM |  |  |  |  |  |  |  |  |  |  |  | 
COc1ccc2c(c1)c(C=C1C(=O)NC(=S)NC1=O)cn2C(=O)c1cccc2ccccc12 [ITBA-3-85] | do not block protease activity | confirmed the inhibition | ~20 µM and 23.5 µM |  |  |  |  |  |  |  |  |  |  |  | 
O=C1NC(=S)NC(=O)C1=Cc1cn(C(=O)c2ccc3ccccc3c2)c2ccc(Cl)cc12 [PNR-3-80] |  |  |  | 36 | 671 nM and 670 nM | none of the two tested compounds had any inhibiting activity | significant and complete inhibition | complete inhibition | did not have any effect | 11.2 | none of the two tested compounds had any inhibiting activity | none of the two tested compounds had any inhibiting activity | significantly protected the plasmid DNA from degradation | cytoprotective | none of the two tested compounds had any inhibiting activity
